{"source": "patent US10584115B2", "about": "“Substituted pyridine and pyrazine BMI-1 inhibitors” (PTC Therapeutics, Inc., priority 2013, dated 2020)", "data": [{"system": "Bmi-1 protein", "assay": "Sandwich ELISA Assay (Bmi-1 protein level in HT-1080 cells after compound treatment)", "format": "cell-based", "settings": "Table 1, Bmi-1 sandwich ELISA, read-out: ELISA EC50 value for Bmi-1 protein", "protocol": "(§1) Cell Seeding and Compound Treatment (Day 1):\n(§2) HT-1080 cells were seeded at 8000 cells/well (50 μL) in 96-well tissue culture plates. After the cells became adherent (3-4 hours), 2× diluted stocks of test compounds in 50 μL DMEM containing 1% DMSO (final DMSO concentration was 0.5%) were added and the plates were incubated at 37° C. under 5% CO2 for 40-48 hours.\n(§3) ELISA Plate First Antibody Preparation (Day 2):\n(§4) The First Antibody (Millipore Mouse, monoclonal to mouse Bmi-1, clone F6, catalog #05-637) diluted to […] in PBS was added (100 μL) to each well of a Nunc MaxiSorp 96-well ELISA plate. The plate was covered with a plate seal and allowed to stand overnight.\n(§5) Cell Lysate Preparation (Day 3):\n(§6) Fresh Lysis buffer (1×) was prepared on the day of the assay as follows: 1 mM EDTA, 150 mM NaCl, 0.5% Triton-X 100, 10 mM NaF, 20 mM B-Glycerophosphate, 1 mM DTT (in PBS, pH 7.2-7.4) and HALT protease inhibitor cocktail (lx) (Pierce #78410).\n(§7) A standard curve was prepared at the following Bmi-1 concentrations: 8000, 4000, 2000, 1000, 500, 250, 125 and 0 pg/mL. The Bmi-1 Recombinant Protein Standard (Novus Biologicals PCGF4 Recombinant Protein (P01), catalog # H00000648-P01) used to prepare the standard curve was stored at −80° C. On first thaw, the Recombinant Protein Standard was diluted to 10 μg/L in Blocking Buffer (1% BSA in PBS; BSA: Fisher Scientific Catalog #1600-100). Aliquots were taken and refrozen at −80° C. The aliquots may be kept at 4° C. and reused after first thaw, but only within 1-2 weeks. The Recombinant Protein Standard contains a GST-fusion tag that appears at approximately 70 Kda on Western Blot.\n(§8) The prepared ELISA plate was washed 3× with Wash Buffer (0.05% Tween-20 in PBS). The final wash was removed from the plate and the plate was blotted dry. Blocking Buffer (300 μL) (1% BSA in PBS) was added to each well. The plate was covered with a plate seal and incubated at room temperature for 1 hour. The blocked plate was washed 3× with Wash Buffer, then the final wash was removed and the plate was blotted dry. The previously prepared samples and standards were added ([…]) and the plate was covered with a plate seal and incubated at 4° C. overnight.\n(§9) The prepared ELISA plate was removed from incubation and allowed to stand at room temperature for 30 minutes, then washed and blotted dry. The Second Antibody (Cell Signaling Rabbit anti-Bmi-1, Cat #2830) diluted to 1:600 in Blocking Buffer was added (100 μL) to each well, except as needed for background control wells. The plate was covered with a plate seal and incubated for 1.5 hrs at room temperature.\n(§10) The ELISA plate was washed and blotted dry as previously described. The Third Antibody (Cell Signaling HRP conjugated anti-rabbit IgG (CellSignaling, Cat #:7074) diluted to 1:300 in Blocking Buffer was added (100 μL) to each well, except as needed for background control wells. The plate was incubated for 1 hr at room temperature.\n(§11) The plate was washed and blotted dry, then a previously prepared TMB substrate (TMB substrate kit, Pierce catalog #34021) (prepared by mixing kit reagents 1:1) (100 μL) was added per well. The plate was incubated for 20-30 minutes at room temperature in the dark, then Stop Solution (2 M sulfuric acid in water) (50 μL) was added per well. The plates were read at OD450 (experimental) and OD570 (reference).", "units": {"EC50": "nM"}, "values": [{"smiles": "Fc1cc(Nc2cncc(-c3c(C(F)(F)F)nc4ccccn34)n2)ccc1C(F)(F)F", "note": "[Cpd 208, N-[3-fluoro-4-(trifluoromethyl)phenyl]-6-[2-(trifluoromethyl)imidazo[1,2-a]pyridin-3-yl]pyrazin-2-amine]", "EC50": "10 to 100"}, {"smiles": "N#Cc1cc(Nc2ccc(OC(F)F)cc2)nc(-c2c(C(F)(F)F)nc3ccccn23)c1", "note": "[Cpd 217, 2-{[4-(difluoromethoxy)phenyl]amino}-6-[2-(trifluoromethyl)imidazo[1,2-a]pyridin-3-yl]pyridine-4-carbonitrile]", "EC50": "1 to 10"}, {"smiles": "OCc1cc(Nc2ccc(C(F)(F)F)cc2)nc(-c2c(C(F)(F)F)nc3ccccn23)c1", "note": "[Cpd 219, (2-[2-(trifluoromethyl)imidazo[1,2-a]pyridin-3-yl]-6-{[4-(trifluoromethyl)phenyl]amino}pyridin-4-yl)methanol]", "EC50": "10 to 100"}, {"smiles": "FC(F)Oc1ccc(Nc2cncc(-c3c(C(F)(F)F)nc4n3CCCC4)n2)cc1", "note": "[Cpd 233, N-[4-(difluoromethoxy)phenyl]-6-[2-(trifluoromethyl)-5,6,7,8-tetrahydroimidazo[1,2-a]pyridin-3-yl]pyrazin-2-amine]", "EC50": "1 to 10"}, {"smiles": "FC(F)(F)Oc1ccc(Nc2cncc(-c3c(C(F)(F)F)nc4n3CCCC4)n2)cc1", "note": "[Cpd 234, N-[4-(trifluoromethoxy)phenyl]-6-[2-(trifluoromethyl)-5,6,7,8-tetrahydroimidazo[1,2-a]pyridin-3-yl]pyrazin-2-amine]", "EC50": "10 to 100"}, {"smiles": "N#Cc1cc(Nc2ccc(OC(F)F)cc2)nc(-c2c(C(F)(F)F)nc3n2CCCC3)c1", "note": "[Cpd 237, 2-{[4-(difluoromethoxy)phenyl]amino}-6-[2-(trifluoromethyl)-5,6,7,8-tetrahydroimidazo[1,2-a]pyridin-3-yl]pyridine-4-carbonitrile]", "EC50": "1 to 10"}, {"smiles": "N#Cc1cc(Nc2ccc(OC(F)(F)F)cc2)nc(-c2c(C(F)(F)F)nc3n2CCCC3)c1", "note": "[Cpd 238, 2-{[4-(trifluoromethoxy)phenyl]amino}-6-[2-(trifluoromethyl)-5,6,7,8-tetrahydroimidazo[1,2-a]pyridin-3-yl]pyridine-4-carbonitrile]", "EC50": "100 to 3000"}, {"smiles": "CC(N)c1ccc(Nc2cc(C#N)cc(-c3c(C(F)(F)F)nc4ccccn34)n2)cc1", "note": "(centres unmarked) [Cpd 257, 2-(4-(1-aminoethyl)phenylamino)-6-(2-(trifluoromethyl)imidazo[1,2-a]pyridin-3-yl)isonicotinonitrile]", "EC50": "100 to 3000"}, {"smiles": "Cc1cnc(C)n1-c1cncc(Nc2ccc(C(F)(F)F)cc2)n1", "note": "[Cpd 355, 6-(2,5-dimethyl-1H-imidazol-1-yl)-N-[4-(trifluoromethyl)phenyl]pyrazin-2-amine]", "EC50": "100 to 3000"}, {"smiles": "CCc1cnc(C)n1-c1cncc(Nc2ccc(C(F)(F)F)cc2)n1", "note": "[Cpd 372, 6-(5-ethyl-2-methyl-1H-imidazol-1-yl)-N-[4-(trifluoromethyl)phenyl]pyrazin-2-amine]", "EC50": "100 to 3000"}, {"smiles": "Cc1cc2nc(C)n(-c3cc(C#N)cc(Nc4ccc(C(F)(F)F)cc4)n3)c2cc1C", "note": "[Cpd 389, 2-{[4-(trifluoromethyl)phenyl]amino}-6-(2,5,6-trimethyl-1H-benzimidazol-1-yl)pyridine-4-carbonitrile]", "EC50": "100 to 3000"}, {"smiles": "CCO/C=C\\c1cn(-c2cncc(Nc3ccc(C(F)(F)F)cc3)n2)c(C)n1", "note": "[Cpd 391, 6-{4-[(Z)-2-ethoxyethenyl]-2-methyl-1H-imidazol-1-yl}-N-[4-(trifluoromethyl)phenyl]pyrazin-2-amine]", "EC50": "100 to 3000"}, {"smiles": "CCc1ccc2nc(C)n(-c3cncc(Nc4ccc(C(F)(F)F)cc4)n3)c2c1", "note": "[Cpd 392, 6-(6-ethyl-2-methyl-1H-benzimidazol-1-yl)-N-[4-(trifluoromethyl)phenyl]pyrazin-2-amine]", "EC50": "100 to 3000"}, {"smiles": "Cc1cc(C)c2nc(C)n(-c3cncc(Nc4ccc(C(F)(F)F)cc4)n3)c2c1", "note": "[Cpd 421, N-[4-(trifluoromethyl)phenyl]-6-(2,4,6-trimethyl-1H-benzimidazol-1-yl)pyrazin-2-amine]", "EC50": "10 to 100"}, {"smiles": "Cc1nc2c(F)cccc2n1-c1cc(C#N)cc(Nc2ccc(C(F)(F)F)cc2)n1", "note": "[Cpd 435, 2-(4-fluoro-2-methyl-1H-benzimidazol-1-yl)-6-{[4-(trifluoromethyl)phenyl]amino}pyridine-4-carbonitrile]", "EC50": "10 to 100"}, {"smiles": "Cc1nc2c(F)cccc2n1-c1cc(C#N)cc(Nc2ccc(OC(F)F)cc2)n1", "note": "[Cpd 436, 2-{[4-(difluoromethoxy)phenyl]amino}-6-(4-fluoro-2-methyl-1H-benzimidazol-1-yl)pyridine-4-carbonitrile]", "EC50": "10 to 100"}, {"smiles": "Cc1nc2c(F)cc(F)cc2n1-c1cc(C#N)cc(Nc2ccc(C(F)(F)F)cc2)n1", "note": "[Cpd 447, 2-(4,6-difluoro-2-methyl-1H-benzimidazol-1-yl)-6-{[4-(trifluoromethyl)phenyl]amino}pyridine-4-carbonitrile]", "EC50": "10 to 100"}, {"smiles": "Cc1nc2c(F)cc(F)cc2n1-c1cc(C#N)cc(Nc2ccc(OC(F)F)cc2)n1", "note": "[Cpd 448, 2-{[4-(difluoromethoxy)phenyl]amino}-6-(4,6-difluoro-2-methyl-1H-benzimidazol-1-yl)pyridine-4-carbonitrile]", "EC50": "10 to 100"}, {"smiles": "Cc1nc2c(F)cc(F)cc2n1-c1cc(C#N)cc(Nc2ccc(OC(F)(F)F)cc2)n1", "note": "[Cpd 449, 2-(4,6-difluoro-2-methyl-1H-benzimidazol-1-yl)-6-{[4-(trifluoromethoxy)phenyl]amino}pyridine-4-carbonitrile]", "EC50": "100 to 3000"}, {"smiles": "Cc1nc2ccccc2n1-c1cc(F)cc(Nc2ccc(C(F)(F)F)cc2[N+](=O)[O-])n1", "note": "[Cpd 493, 4-fluoro-6-(2-methyl-1H-benzimidazol-1-yl)-N-[2-nitro-4-(trifluoromethyl)phenyl]pyridin-2-amine]", "EC50": "100 to 3000"}, {"smiles": "Cc1nc2ccccc2n1-c1cc(F)cc(Nc2ccc(C(F)(F)F)cc2)n1", "note": "[Cpd 494, 4-fluoro-6-(2-methyl-1H-benzimidazol-1-yl)-N-[4-(trifluoromethyl)phenyl]pyridin-2-amine]", "EC50": "10 to 100"}, {"smiles": "Cc1ccc(Nc2cccc(-n3c(C)nc4ccccc43)n2)cc1", "note": "[Cpd 581, 6-(2-methyl-1H-benzimidazol-1-yl)-N-(4-methylphenyl)pyridin-2-amine]", "EC50": "1 to 10"}]}, {"system": "Bmi-1 protein", "assay": "Sandwich ELISA Assay (Bmi-1 protein level in HT-1080 cells after compound treatment)", "format": "cell-based", "settings": "read-out: ELISA EC50 value for Bmi-1 protein, Table 1, Bmi-1 sandwich ELISA", "protocol": "as §1, §2, §3, §4, §5, §6, §7, §8, §9, §10, §11", "units": {"EC50": "nM"}, "values": [{"smiles": "Cc1nc2ccccc2n1-c1cc(C(N)=O)cc(Nc2ccc(C(F)(F)F)cc2)n1", "note": "[Cpd 203, 2-(2-methyl-1H-benzimidazol-1-yl)-6-{[4-(trifluoromethyl)phenyl]amino}pyridine-4-carboxamide]", "EC50": "100 to 3000"}, {"smiles": "FC(F)(F)c1ccc(Nc2cncc(-c3c(C(F)(F)F)nc4n3CCCC4)n2)cc1", "note": "[Cpd 232, N-[4-(trifluoromethyl)phenyl]-6-[2-(trifluoromethyl)-5,6,7,8-tetrahydroimidazo[1,2-a]pyridin-3-yl]pyrazin-2-amine]", "EC50": "1 to 10"}, {"smiles": "N#Cc1cc(Nc2ccc(C(F)(F)F)cc2)nc(-c2c(C(F)(F)F)nc3n2CCCC3)c1", "note": "[Cpd 236, 2-{[4-(trifluoromethyl)phenyl]amino}-6-[2-(trifluoromethyl)-5,6,7,8-tetrahydroimidazo[1,2-a]pyridin-3-yl]pyridine-4-carbonitrile]", "EC50": "10 to 100"}, {"smiles": "COc1ccc(Nc2ccc(N)c(-c3c(C(F)(F)F)nc4ccccn34)n2)cc1", "note": "[Cpd 282, N^2-(4-methoxyphenyl)-6-[2-(trifluoromethyl)imidazo[1,2-a]pyridin-3-yl]pyridine-2,5-diamine]", "EC50": "100 to 3000"}, {"smiles": "Cc1nc(Cl)c(Cl)n1-c1cncc(Nc2ccc(C(F)(F)F)cc2)n1", "note": "[Cpd 297, 6-(4,5-dichloro-2-methyl-1H-imidazol-1-yl)-N-[4-(trifluoromethyl)phenyl]pyrazin-2-amine]", "EC50": "100 to 3000"}, {"smiles": "Cc1nc2ccccc2n1-c1cc(N)cc(Nc2ccc(C(F)(F)F)cc2)n1", "note": "[Cpd 492, 6-(2-methyl-1H-benzimidazol-1-yl)-N^2-[4-(trifluoromethyl)phenyl]pyridine-2,4-diamine]", "EC50": "10 to 100"}, {"smiles": "COc1ccc(Nc2nc(-n3c(C)nc4ccccc43)ccc2N)cc1", "note": "[Cpd 518, N^2-(4-methoxyphenyl)-6-(2-methyl-1H-benzimidazol-1-yl)pyridine-2,3-diamine]", "EC50": "10 to 100"}]}]}
